{"source": "paper PMC3507590", "about": "(Diabetes Care, 2012)", "key": {"[1]": {"test_system": "insulin receptors (IR)", "settings": "cited from earlier work"}, "[2]": {"test_system": "IGF-1 receptor (IGF-1R)", "settings": "cited from earlier work; for affinity for IGF-1 receptor versus human insulin: as stated in the abstract"}, "[3]": {"test_system": "insulin/IGF-1 hybrid receptors", "settings": "in vitro; ref Pierre-Eugene et al., PLoS One 2012;7:e41992; cited from earlier work"}, "[4]": {"settings": "acidic pH; precipitates amorphously upon s.c. injection; cited from earlier work"}, "[5]": {"test_system": "MCF-7 cells", "settings": "ref Pierre-Eugene et al., PLoS One 2012;7:e41992; cited from earlier work"}, "[6]": {"test_system": "malignant cell lines expressing primarily IGF-1R", "settings": "cited from earlier work"}, "[7]": {"test_system": "subjects with type 1 and type 2 diabetes", "settings": "after multiple dosing; cited from earlier work"}, "[8]": {"test_system": "animals", "settings": "in vivo in animals; cited from earlier work"}, "[9]": {"settings": "in vitro, 37°C, mass spectrometry; cited from earlier work"}, "[10]": {"settings": "for detectability / plasma concentration after s.c. glargine: any dose (0.3-1.2 units/kg), any time point 3-30 h, LLOQ 33 pmol/L"}, "[11]": {"settings": "in vitro; cited from earlier work"}}, "note": "Read-outs that look alike come from different tables or passages of the source."}
{"substance": "10^B-Asp-human insulin [X10, reference compound]", "values": [{"measurement": "affinity for IR", "setting": "[1]", "value": "greater affinity"}, {"measurement": "affinity for IGF-1R", "setting": "[2]", "value": "greater affinity"}]}
{"substance": "21^A-Gly-31^B-Arg-32^B-Arg-human insulin [glargine, reference compound]", "values": [{"measurement": "potency for stimulation of insulin/IGF-1 hybrid receptors versus human insulin", "setting": "[3]", "value": "higher potency"}, {"measurement": "solubility", "setting": "[4]", "value": "Soluble at acidic pH"}, {"measurement": "proliferative/antiapoptotic effects versus human insulin", "setting": "[5]", "value": "greater proliferative/antiapoptotic effects"}, {"measurement": "potency on DNA synthesis (mitogenic effects) compared with human insulin", "setting": "[6]; in vitro, malignant cell lines expressing primarily IGF-1R", "value": "greater potency"}, {"measurement": "duration of action", "setting": "[7]", "value": "> 24", "unit": "h"}, {"measurement": "tumor growth promotion", "setting": "[8]", "value": "does not promote tumor growth"}, {"measurement": "time for quantitative degradation into M1 in human serum", "setting": "[9]", "value": "≤ 1", "unit": "h"}, {"measurement": "detectability / plasma concentration after s.c. glargine", "setting": "[10]", "value": "nearly always fall below LLOQ"}, {"measurement": "detectability / plasma concentration after s.c. glargine", "setting": "[10]; listed as Glargine", "value": "detectable in only one-third of subjects"}, {"measurement": "affinity for IGF-1 receptor versus human insulin", "setting": "[2]; in vitro", "value": "slightly higher affinity"}, {"measurement": "binding affinity for IGF-1R compared with human insulin", "setting": "[2]; in vitro", "value": "greater binding affinity"}]}
{"substance": "21^A-Gly-des-30^B-Thr-human insulin [M2]", "values": [{"measurement": "potency for stimulation of insulin/IGF-1 hybrid receptors versus human insulin", "setting": "[3]", "value": "lower potency"}, {"measurement": "metabolic properties relative to human insulin", "setting": "[11]", "value": "fully retaining its metabolic properties"}, {"measurement": "mitogenic potential in vitro compared with glargine, and even with human insulin", "setting": "[6]", "value": "lower mitogenic potential"}, {"measurement": "time of first appearance in plasma", "setting": "[10]; after s.c. glargine, associated with high M1 concentration", "value": "first appeared after 12 h"}, {"measurement": "affinity for IGF-1 receptor versus human insulin", "setting": "[2]; in vitro", "value": "lower affinity"}, {"measurement": "affinity for IGF-1R compared with glargine, and even with human insulin", "setting": "[2]; in vitro", "value": "lower affinity"}]}
{"substance": "21^A-Gly-human insulin [M1]", "values": [{"measurement": "potency for stimulation of insulin/IGF-1 hybrid receptors versus human insulin", "setting": "[3]", "value": "lower potency"}, {"measurement": "metabolic properties relative to human insulin", "setting": "[11]", "value": "fully retaining its metabolic properties"}, {"measurement": "mitogenic potential in vitro compared with glargine, and even with human insulin", "setting": "[6]", "value": "lower mitogenic potential"}, {"measurement": "time of maximum plasma concentrations after subcutaneous injection of glargine", "setting": "[10]; M1 PK profile, doses 0.3, 0.6, 1.2 units/kg", "value": "~12", "unit": "h"}, {"measurement": "plasma concentration by 30 h versus baseline", "setting": "[10]; doses >0.3 units/kg", "value": "still elevated over baseline"}, {"measurement": "affinity for IGF-1 receptor versus human insulin", "setting": "[2]; in vitro", "value": "lower affinity"}, {"measurement": "affinity for IGF-1R compared with glargine, and even with human insulin", "setting": "[2]; in vitro", "value": "lower affinity"}]}
{"substance": "31^B-Arg-32^B-Arg-human insulin [reference compound]", "values": [{"measurement": "IGF-1R affinity compared with glargine", "setting": "[2]; in vitro", "value": "even greater IGF-1R affinity"}]}
